Measured values: patent publication US6727244B2, “Mammalian metabolites of a tachykinin receptor antagonist” (Merck & Co., Inc., priority 2000, dated 2004)

How the values were obtained:
human NK1 receptor = target: T1, human NK1 receptor (Homo sapiens, UniProt P25103); test: human NK1 receptor binding assay (125I-substance P, COS or CHO cells)
T1 construct: expressed in transfected cells
Procedure: To express the cloned human neurokinin-1 receptor (NKIR) transiently in COS, the cDNA for the human NKIR was cloned into the expression vector pCDM9 which was derived from pCDM8 (INVITROGEN) by inserting the ampicillin resistance gene (nucleotide 1973 to 2964 from BLUESCRIPT SK+) into the Sac II site. Transfection of 20 ug of the plasmid DNA into 10 million COS cells was achieved by electroporation in 800 ul of transfection buffer (135 mM NaCl, 1.2 mM CaCl2, 1.2 mM MgCl2, 2.4 mM K2HPO4, 0.6 mM KH2PO4, 10 mM glucose, 10 mM HEPES pH 7.4) at 260 V and 950 uF using the IBI GENEZAPPER (IBI, New Haven, Conn.). The cells were incubated in 10% fetal calf serum, 2 mM glutamine, 100U/ml penicillin-streptomycin, and 90% DMEM media (GIBCO, Grand Island, N.Y.) in 5% CO2 at 37° C. for three days before the binding assay.
To establish a stable cell line expressing the cloned human NK1R, the cDNA was subcloned into the vector pRcCMV (INVITROGEN). Transfection of 20 ug of the plasmid DNA into CHO cells was achieved by electroporation in 800 ul of transfection buffer suplemented with 0.625 mg/ml Herring sperm DNA at 300 V and 950 uF using the IBI GENEZAPPER (IBI). The transfected cells were incubated in CHO media [10 % fetal calf serum, 100 U/ml pennicilin-streptomycin, 2 mM glutamine, 1/500 hypoxanthine-thymidine (ATCC), 90% IMDM media (JRH BIOSClENCES, Lenexa, Kans.), 0.7 mg/ml G418 (GIBCO)] in 5% CO2 at 37° C. until colonies were visible. Each colony was separated and propagated. The cell clone with the highest number of human NK1R was selected for subsequent applications such as drug screening.
The binding assay of human NK1R expressed in either COS or CHO cells is based on the use of ^125I-substance P (^125I-SP, from DU PONT, Boston, Mass.) as a radioactively labeled ligand which competes with unlabeled substance P or any other ligand for binding to the human NK1R. Monolayer cell cultures of COS or CHO were dissociated by the non-enzymatic solution (SPECIALTY MEDIA, Lavallette, N.J.) and resuspended in appropriate volume of the binding buffer (50 mM Tris pH 7.5, 5 mM MnCl2, 150 mM NaCl, 0.04 mg/ml bacitracin, 0.004 mg/ml leupeptin, 0.2 mg/ml BSA, 0.01 mM phosphoramidon) such that 200 ul of the cell suspension would give rise to about 10,000 cpm of specific ^125I-SP binding (approximately 50,000 to 200,000 cells). […] The bound radioactivity was separated from unbound radioactivity by GF/C filter (BRANDEL, Gaithersburg, Md.) which was pre-wetted with 0.1 % polyethylenimine. The filter was washed with 3 ml of wash buffer (50 mM Tris pH 7.5, 5 mM MnCl2, 150 mM NaCl) three times and its radioactivity was determined by gamma counter.

[1] = target: T2, recombinant human CYP isozymes (Homo sapiens, UniProt P08684); test: metabolism by microsomes containing recombinant human CYP isozymes; format: in vitro ADME; settings: parent to M-1 (N-dealkylation); M-1 to M-2 (oxidation); M-3 to M-4 (hydroxylation); M-2 to M-5 (conversion)
T2 construct: host or cells: Baculovirus-infected sf21 insect cells (microsomes)
Procedure: Hepatocytes were harvested from male Sprague-Dawley rat livers or human livers and cultured on a matrigel support and treated with 0.1 μM dexamethasone or 50 μM rifampicin, respectively, for 48 hr prior to the addition of the test compounds. A 2.5 mM stock solution of [^14C]2-(R)-(1-(R)-(3,5-bis(trifluoromethyl)-phenyl)ethoxy)-3-(S)-(4-fluoro)phenyl-4-(3-(5-oxo-1H,4H-1,2,4-triazolo)methylmorpholine, [^14C]M-1 or [^14C]M-2 in DMSO was added to the plates such that the final concentration of test compound was 25 μM and DMSO was 1% (v/v). The cultures were incubated for 4, 6 or 24 hr for rat hepatocytes and 48 hr for human hepatocytes. The incubation mixtures (500 μL) contained 10 μM of test compound, 100 mM phosphate buffer pH 7.4, NADPH-regenerating system, microsomes containing expressed CYP isoforms (CYP1A2, CYP2A6, CYP2B6, CYP2C8, CYP2C9, CYP2C19, CYP2D6, CYP2E1 or CYP3A4) and cytochrome P-450 reductase. The reactions were initiated by adding NADP and proceeded at 37° C. for 15-45 min. Acetonitrile extracts from microsomal and hepatocyte incubates were dissolved in 50% aqueous methanol and fractionated by HPLC. The separation was accomplished on a Zorbax RX C8 analytical column (5 μm, 4.6×250 mm). The mobile phase consisted of solvent A (10 mM ammonium acetate in water) and solvent B (7.3 mM ammonium acetate in 92.7% acetonitrile and 7.3% methanol. The column was eluted by a linear gradient from 35 to 80% B over 40 min at a flow rate of 1 mL/min. Fractions of major metabolites were subjected to LC-MS/MS analysis. Further purification was done using isocratic conditions prior to NMR analysis.
The incubation mixtures (500 μL) contained 10 or 25 μM of test compounds, 100 mM phosphate buffer pH 7.4, NADPH-regenerating system (5 mM glucose-6-phosphate, 1 mM NADP and 0.7 I.U/mL glucose 6-phosphate dehydrogenase), 0.5 to 2 mg/mL liver microsomal protein prepared from rats and humans or microsomes from Baculovirus-infected sf21 cells containing 20 to 200 pmol expressed CYP isoforms (CYP1A2, CYP2A6, CYP2B6, CYP2C8, CYP2C9, CYP2C19, CYP2D6, CYP2E1 or CYP3A4) and cytochrome P450 reductase. Stock solutions of the substrates in methanol were made such that final concentration of methanol in the reaction mixture was 3%. The reactions were initiated by adding 50 μL of 10 mM NADP and proceeded at 37° C. for 15-45 min. After incubation, the reactions were terminated by the addition of four volumes of acetonitrile. The suspensions were mixed vigorously and centrifuged at 3000×g for 5 min. The supernatants were dried and redissolved in 50% methanol for HPLC analysis using method A described below.

[2] = oxidative metabolism in liver microsomes from humans; format: in vitro ADME; settings: human liver microsomes, 45 min
Procedure: (§1) All liver microsomal and cytosolic fractions were prepared using the following procedure. Thawed livers were homogenized with 2 volumes of 50 mM Tris-buffer (pH 7.5) containing 1.15% KCl. For microsomal and cytosolic preparations, the homogenate was centrifuged for 20 min at 9,000×g and the resulting supernatant was centrifuged for 60 min at 105,000×g. The resulting cytosolic fractions were re-centrifuged at 105,000×g for 60 min. Fractions of cytosol were aliquoted into small tubes and stored at −70° C. Subsequently, the microsomal pellets were washed with 10 mM EDTA containing 1.15% KCl and were centrifuged at 105,000×g for 60 min. Washed microsomes were resuspended in 10 mM potassium phosphate buffer (pH 7.4) containing 250 mM sucrose, aliquoted into small tubes, and stored at −70° C. Protein concentrations were determined by a modified Lowry assay (Smith et al., 1985). The specific cytochrome P450 content in each microsomal preparation was measured as described by Omura and Sato, J. Biol. Chem. 239, 2370-2378 (1964). […]
(§2) Method A was conducted on a Shimadzu HPLC system (Shimadzu Scientific Instruments Inc., Columbia Md.). The parent compounds and their metabolites were monitored directly using a radiometric detector (INUS Systems Inc. Tampa, Fla.) and Ultima-Flow M (Packard Instrument Co., Meridan Conn.) as scintillant at a flow rate of 3 mL/min. […]

[3] = oxidative metabolism in liver microsomes from rats; format: in vitro ADME; settings: rat liver microsomes, 45 min
Procedure: as §1, §2

T2 sequence (P08684 2-503 limits assumed): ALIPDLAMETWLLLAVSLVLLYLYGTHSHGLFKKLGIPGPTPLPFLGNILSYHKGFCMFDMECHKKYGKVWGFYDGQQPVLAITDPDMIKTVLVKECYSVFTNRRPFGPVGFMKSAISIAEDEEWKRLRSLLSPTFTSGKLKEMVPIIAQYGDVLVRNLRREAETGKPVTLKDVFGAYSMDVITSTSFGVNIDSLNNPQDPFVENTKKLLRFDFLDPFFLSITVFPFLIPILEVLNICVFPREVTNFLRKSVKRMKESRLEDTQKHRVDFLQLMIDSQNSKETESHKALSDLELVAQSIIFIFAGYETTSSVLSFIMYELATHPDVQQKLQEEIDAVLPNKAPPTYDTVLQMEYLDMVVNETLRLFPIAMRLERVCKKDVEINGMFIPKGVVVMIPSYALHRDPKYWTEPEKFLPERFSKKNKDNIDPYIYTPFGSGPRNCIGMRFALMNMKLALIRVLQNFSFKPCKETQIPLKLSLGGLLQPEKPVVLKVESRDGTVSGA
T1 sequence (P25103 whole entry): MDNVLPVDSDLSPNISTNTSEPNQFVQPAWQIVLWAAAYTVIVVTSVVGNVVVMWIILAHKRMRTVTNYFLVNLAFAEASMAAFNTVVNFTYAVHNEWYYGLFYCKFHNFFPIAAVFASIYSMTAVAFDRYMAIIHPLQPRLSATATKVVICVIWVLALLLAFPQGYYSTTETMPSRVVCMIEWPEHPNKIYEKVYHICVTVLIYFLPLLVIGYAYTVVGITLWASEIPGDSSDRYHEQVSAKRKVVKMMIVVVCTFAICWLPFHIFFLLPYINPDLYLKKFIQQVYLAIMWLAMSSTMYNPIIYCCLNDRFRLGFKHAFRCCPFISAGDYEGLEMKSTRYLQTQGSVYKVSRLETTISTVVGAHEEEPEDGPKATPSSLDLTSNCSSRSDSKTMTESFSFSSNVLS

| IC50 (human NK1 receptor) [nM] | CYP isozyme primarily responsible for the metabolic step [1] | conversion in microsomes in the presence of an NADPH regenerating system [2] [%] | conversion in microsomes in the presence of an NADPH regenerating system [3] [%] | SMILES |
| --- | --- | --- | --- | --- |
| 18 | – | – | – | C[C@@H](O[C@@H](OCC(=O)O)C(O)c1ccc(F)cc1)c1cc(C(F)(F)F)cc(C(F)(F)F)c1 (stereo partly drawn) [Metabolite M-6, [(1R)-1-[(1R)-1-[3,5-bis(trifluoromethyl)phenyl]ethoxy]-2-(4-fluorophenyl)-2-hydroxyethoxy]acetic acid] |
| 4 | CYP3A4 | – | – | C[C@@H](O[C@H]1OCC(=O)N[C@H]1c1ccc(F)cc1)c1cc(C(F)(F)F)cc(C(F)(F)F)c1 [Metabolite M-3, (5S,6R)-6-[(1R)-1-[3,5-bis(trifluoromethyl)phenyl]ethoxy]-5-(4-fluorophenyl)-3-morpholinone] |
| – | CYP3A4 | < 2 | < 2 | C[C@@H](O[C@H]1OCCN(Cc2n[nH]c(=O)[nH]2)[C@H]1c1ccc(F)cc1)c1cc(C(F)(F)F)cc(C(F)(F)F)c1 [Parent Compound, 5-[[(2R,3S)-2-[(1R)-1-[3,5-bis(trifluoromethyl)phenyl]ethoxy]-3-(4-fluorophenyl)4-morpholinyl]methyl]-1,2-dihydro-3H-1,2,4-triazol-3-one, reference compound] |
| ~10 | CYP3A4 | – | – | C[C@@H](O[C@H]1OCCN=C1c1ccc(F)cc1)c1cc(C(F)(F)F)cc(C(F)(F)F)c1 [Metabolite M-2, (2R)-2-[(1R)-1-[3,5-bis(trifluoromethyl)phenyl]ethoxy]-3-(4-fluorophenyl)-5,6-dihydro-2H-1,4-oxazine] |
